Where “and” joins values, the source holds several entries; their conditions need not be identical. Identical values can stand only once.
How the values were obtained:
[1] = target: CDK12–cyclin K (Homo sapiens, UniProt Q9NYV4); assay: Lanthascreen kinase binding assay, CDK12; conditions: duplicates
Experimental: Lanthascreen experiments were performed using commercially available reagents (Thermo Fisher) and according to the manufacturer’s instructions.

[2] = target: T1, CDK12–cyclin K and DDB1 (Homo sapiens, UniProt Q16531+Q9NYV4, K965R); assay: TR-FRET Kd determination, quadratic fit, 50 nM or 10 nM CDK12–cyclin K; type: binding
T1 construct: His6–CDK12 (a.a. 713–1,052); full-length or beta-propeller B domain deletion (ΔBPB: a.a. 396–705 deleted) constructs of His6–DDB1ΔBPB, StrepII–Avi–DDB1, or His6–Spy–DDB1; made in house; host or cells: Trichoplusia ni High Five insect cells (baculovirus)
Description: Equation (2) is a quadratic binding equation used for Kd determination,where Top and Bottom refer to the curve plateaus. […]

Chain of CDK12–cyclin K (Q9NYV4 713-1052): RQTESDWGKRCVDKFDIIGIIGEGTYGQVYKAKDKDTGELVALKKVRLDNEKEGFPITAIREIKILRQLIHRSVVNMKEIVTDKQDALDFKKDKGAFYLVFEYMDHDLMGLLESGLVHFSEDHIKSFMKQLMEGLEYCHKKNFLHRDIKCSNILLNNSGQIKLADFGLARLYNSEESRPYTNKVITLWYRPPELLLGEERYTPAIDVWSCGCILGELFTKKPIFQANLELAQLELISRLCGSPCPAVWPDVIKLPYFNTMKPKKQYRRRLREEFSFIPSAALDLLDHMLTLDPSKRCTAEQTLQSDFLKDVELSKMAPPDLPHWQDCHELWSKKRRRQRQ
Chain of CDK12–cyclin K (O75909 1-267 partner limits assumed): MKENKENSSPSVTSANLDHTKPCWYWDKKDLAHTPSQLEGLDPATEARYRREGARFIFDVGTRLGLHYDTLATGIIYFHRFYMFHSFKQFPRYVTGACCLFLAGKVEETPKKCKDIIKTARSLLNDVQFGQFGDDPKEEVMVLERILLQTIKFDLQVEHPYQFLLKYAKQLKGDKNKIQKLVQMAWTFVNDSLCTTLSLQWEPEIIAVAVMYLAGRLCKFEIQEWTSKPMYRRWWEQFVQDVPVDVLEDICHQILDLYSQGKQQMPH
T1 sequence (Q9NYV4 713-1052 K965R): as the sequence (Q9NYV4 713-1052) above, with K253R counted along it
T1 sequence (O75909 1-267 partner): as the sequence (O75909 1-267 partner limits assumed) above
T1 sequence (Q16531 whole entry): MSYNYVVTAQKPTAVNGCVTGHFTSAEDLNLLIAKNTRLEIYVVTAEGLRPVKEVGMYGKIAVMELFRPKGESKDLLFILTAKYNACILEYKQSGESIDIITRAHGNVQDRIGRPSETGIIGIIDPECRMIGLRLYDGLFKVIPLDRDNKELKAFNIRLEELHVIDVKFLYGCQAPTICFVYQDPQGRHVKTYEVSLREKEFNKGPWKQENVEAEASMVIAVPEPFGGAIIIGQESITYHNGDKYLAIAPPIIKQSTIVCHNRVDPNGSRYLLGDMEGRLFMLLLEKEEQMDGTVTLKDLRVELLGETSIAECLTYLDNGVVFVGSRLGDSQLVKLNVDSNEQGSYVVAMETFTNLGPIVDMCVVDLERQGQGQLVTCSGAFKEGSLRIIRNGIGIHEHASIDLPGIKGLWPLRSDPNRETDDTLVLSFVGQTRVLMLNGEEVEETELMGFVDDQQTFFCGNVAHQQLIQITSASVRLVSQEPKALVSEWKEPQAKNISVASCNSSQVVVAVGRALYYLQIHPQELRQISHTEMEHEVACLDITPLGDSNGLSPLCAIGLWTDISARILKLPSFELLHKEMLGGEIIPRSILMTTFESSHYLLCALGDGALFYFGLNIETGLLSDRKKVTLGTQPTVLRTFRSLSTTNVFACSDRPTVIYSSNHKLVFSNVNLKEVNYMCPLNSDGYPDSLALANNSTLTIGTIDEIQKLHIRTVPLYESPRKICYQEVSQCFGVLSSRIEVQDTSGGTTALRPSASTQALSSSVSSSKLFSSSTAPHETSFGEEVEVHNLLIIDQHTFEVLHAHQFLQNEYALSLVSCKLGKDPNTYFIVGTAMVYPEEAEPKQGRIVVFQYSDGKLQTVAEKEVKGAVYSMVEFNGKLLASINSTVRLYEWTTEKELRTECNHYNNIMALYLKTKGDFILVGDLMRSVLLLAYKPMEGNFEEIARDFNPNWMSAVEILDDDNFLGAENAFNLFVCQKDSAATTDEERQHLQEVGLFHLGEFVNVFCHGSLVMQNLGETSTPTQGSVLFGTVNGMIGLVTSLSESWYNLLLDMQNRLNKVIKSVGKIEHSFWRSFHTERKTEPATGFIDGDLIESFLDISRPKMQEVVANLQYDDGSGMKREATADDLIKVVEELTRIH

Question: `CCC(CO)Nc1nc(NCc2ccc(-c3ccccn3)cc2)c2ncn(C(C)C)c2n1` (centres unmarked) [CR8, reference compound] was tested. Which “Lanthascreen raw signal, sheet CDK12” value ([1]; compound 0.038147 nM, series r37) did it give?
Answer: 0.01304 and 0.01325

Question: And the “Lanthascreen raw signal, sheet CDK12” value ([1]; compound 0.038147 nM, series r49)?
Answer: 0.007695 and 0.007446

Question: And the “Lanthascreen raw signal, sheet CDK12” value ([1]; compound 0.152588 nM, series r37)?
Answer: 0.01428 and 0.01359

Question: What about the “Lanthascreen raw signal, sheet CDK12” value ([1]; compound 0.152588 nM, series r49) of the same compound?
Answer: 0.009378 and 0.01005

Question: And the “Lanthascreen raw signal, sheet CDK12” value ([1]; compound 0.610352 nM, series r37)?
Answer: 0.015 and 0.0141

Question: What about the “Lanthascreen raw signal, sheet CDK12” value ([1]; compound 0.610352 nM, series r49) of the same compound?
Answer: 0.009165 and 0.0112

Question: And the “Lanthascreen raw signal, sheet CDK12” value ([1]; compound 0.76 nM, series r25)?
Answer: 0.01077 and 0.009668

Question: What about the “Lanthascreen raw signal, sheet CDK12” value ([1]; compound 1.02544 nM, series r1) of the same compound?
Answer: 0.009016 and 0.007993

Question: What about the “Lanthascreen raw signal, sheet CDK12” value ([1]; compound 3.15521 nM, series r1) of the same compound?
Answer: 0.009443 and 0.008694

Question: And the “Lanthascreen raw signal, sheet CDK12” value ([1]; compound 4.57247 nM, series r25)?
Answer: 0.009656 and 0.009902

Question: What about the “Lanthascreen raw signal, sheet CDK12” value ([1]; compound 9.46563 nM, series r1) of the same compound?
Answer: 0.008963 and 0.008112

Question: What about the “Lanthascreen raw signal, sheet CDK12” value ([1]; compound 9.76563 nM, series r37) of the same compound?
Answer: 0.01368 and 0.01299

Question: What about the “Lanthascreen raw signal, sheet CDK12” value ([1]; compound 9.76563 nM, series r49) of the same compound?
Answer: 0.009408 and 0.009212

Question: And the “Lanthascreen raw signal, sheet CDK12” value ([1]; compound 13.7174 nM, series r25)?
Answer: 0.01017 and 0.01059

Question: What about the “Lanthascreen raw signal, sheet CDK12” value ([1]; compound 31.5521 nM, series r1) of the same compound?
Answer: 0.006752 and 0.007539

Question: And the “Lanthascreen raw signal, sheet CDK12” value ([1]; compound 39.0625 nM, series r37)?
Answer: 0.01193 and 0.01223

Question: And the “Lanthascreen raw signal, sheet CDK12” value ([1]; compound 39.0625 nM, series r49)?
Answer: 0.009305 and 0.008784

Question: And the “Lanthascreen raw signal, sheet CDK12” value ([1]; compound 41.1523 nM, series r25)?
Answer: 0.009709 and 0.009531

Question: And the “Lanthascreen raw signal, sheet CDK12” value ([1]; compound 99.3891 nM, series r1)?
Answer: 0.006201 and 0.006527

Question: And the “Lanthascreen raw signal, sheet CDK12” value ([1]; compound 123.457 nM, series r25)?
Answer: 0.008131 and 0.007441

Question: And the “Lanthascreen raw signal, sheet CDK12” value ([1]; compound 156.25 nM, series r37)?
Answer: 0.00959 and 0.00993

Question: And the “Lanthascreen raw signal, sheet CDK12” value ([1]; compound 156.25 nM, series r49)?
Answer: 0.007819 and 0.007288

Question: What about the “Lanthascreen raw signal, sheet CDK12” value ([1]; compound 315.521 nM, series r1) of the same compound?
Answer: 0.007121 and 0.006383

Question: What about the “Lanthascreen raw signal, sheet CDK12” value ([1]; compound 370.37 nM, series r25) of the same compound?
Answer: 0.007201 and 0.007104

Question: What about the “Lanthascreen raw signal, sheet CDK12” value ([1]; compound 625 nM, series r37) of the same compound?
Answer: 0.007458 and 0.007383

Question: And the “Lanthascreen raw signal, sheet CDK12” value ([1]; compound 625 nM, series r49)?
Answer: 0.006302 and 0.006427

Question: And the “Lanthascreen raw signal, sheet CDK12” value ([1]; compound 2500 nM, series r37)?
Answer: 0.006338 and 0.006017

Question: What about the “Lanthascreen raw signal, sheet CDK12” value ([1]; compound 2500 nM, series r49) of the same compound?
Answer: 0.006233 and 0.005662

Question: And the “Lanthascreen raw signal, sheet CDK12” value ([1]; compound 3155.21 nM, series r1)?
Answer: 0.005736 and 0.005607

Question: What about the “Lanthascreen raw signal, sheet CDK12” value ([1]; compound 3333.33 nM, series r25) of the same compound?
Answer: 0.00631 and 0.006815

Question: What about the “Lanthascreen raw signal, sheet CDK12” value ([1]; compound 10000 nM, series r25) of the same compound?
Answer: 0.004829 and 0.005941

Question: What about the “Lanthascreen raw signal, sheet CDK12” value ([1]; compound 10000 nM, series r37) of the same compound?
Answer: 0.006588 and 0.005825

Question: What about the “Lanthascreen raw signal, sheet CDK12” value ([1]; compound 10000 nM, series r49) of the same compound?
Answer: 0.006042 and 0.005923

Question: What about the “Lanthascreen raw signal, sheet CDK12” value ([1]; compound 10002 nM, series r1) of the same compound?
Answer: 0.006385 and 0.006398

Question: And the TR-FRET signal ([2]; 10 nM CDK12-cyclin K, compound 0.468 nM)?
Answer: 0.1037

Question: And the TR-FRET signal ([2]; 10 nM CDK12-cyclin K, compound 2.16 nM)?
Answer: 0.135

Question: What about the TR-FRET signal ([2]; 10 nM CDK12-cyclin K, compound 3.6 nM) of the same compound?
Answer: 0.1982

Question: And the TR-FRET signal ([2]; 10 nM CDK12-cyclin K, compound 7.92 nM)?
Answer: 0.284

Question: And the TR-FRET signal ([2]; 10 nM CDK12-cyclin K, compound 15.84 nM)?
Answer: 0.3713

Question: What about the TR-FRET signal ([2]; 10 nM CDK12-cyclin K, compound 30.96 nM) of the same compound?
Answer: 0.4536

Question: What about the TR-FRET signal ([2]; 10 nM CDK12-cyclin K, compound 62.6399 nM) of the same compound?
Answer: 0.4778

Question: What about the TR-FRET signal ([2]; 10 nM CDK12-cyclin K, compound 125.279 nM) of the same compound?
Answer: 0.4982

Question: And the TR-FRET signal ([2]; 10 nM CDK12-cyclin K, compound 244.8 nM)?
Answer: 0.5242

Question: And the TR-FRET signal ([2]; 10 nM CDK12-cyclin K, compound 993.6 nM)?
Answer: 0.5359

Question: What about the TR-FRET signal ([2]; 10 nM CDK12-cyclin K, compound 2001.6 nM) of the same compound?
Answer: 0.5508

Question: What about the TR-FRET signal ([2]; 50 nM CDK12-cyclin K, compound 0.468 nM) of the same compound?
Answer: 0.2224

Question: What about the TR-FRET signal ([2]; 50 nM CDK12-cyclin K, compound 2.16 nM) of the same compound?
Answer: 0.2548

Question: What about the TR-FRET signal ([2]; 50 nM CDK12-cyclin K, compound 3.6 nM) of the same compound?
Answer: 0.3253

Question: What about the TR-FRET signal ([2]; 50 nM CDK12-cyclin K, compound 7.92 nM) of the same compound?
Answer: 0.4723

Question: What about the TR-FRET signal ([2]; 50 nM CDK12-cyclin K, compound 15.84 nM) of the same compound?
Answer: 0.7533

Question: What about the TR-FRET signal ([2]; 50 nM CDK12-cyclin K, compound 30.96 nM) of the same compound?
Answer: 1.3518

Question: What about the TR-FRET signal ([2]; 50 nM CDK12-cyclin K, compound 62.6399 nM) of the same compound?
Answer: 2.31

Question: What about the TR-FRET signal ([2]; 50 nM CDK12-cyclin K, compound 125.279 nM) of the same compound?
Answer: 2.851

Question: And the TR-FRET signal ([2]; 50 nM CDK12-cyclin K, compound 244.8 nM)?
Answer: 2.999

Question: What about the TR-FRET signal ([2]; 50 nM CDK12-cyclin K, compound 993.6 nM) of the same compound?
Answer: 3.086

Question: What about the TR-FRET signal ([2]; 50 nM CDK12-cyclin K, compound 2001.6 nM) of the same compound?
Answer: 3.013
